In brackets after ≈: the same amount, converted by molar mass. Marks after values point to notes of the source that are not given here.
Experiments:
Assay type in all cases: physicochemical
[1] = Measurement of the approximate solubility (solvent added in steps to the solid); conditions: 23 °C, read-out: Solubility
Experimental: To determine the approximate solubility at room temperature, the solvent was added in steps to the solid material. After every addition, the sample was well stirred. The addition of solvent was continued until complete dissolution or until 15 ml of solvent was added.

[2] = Water solubility of solid forms A and B′ (suspension shaken, filtered, HPLC; residue by Raman); conditions: for Solid residue: Raman, rough estimate
Experimental: During the following experiments: suspension equilibration, precipitation experiment, recrystallization, relative stability experiments and water solubility experiment, a filtration step was conducted. Centrifugal filter devices: Ultrafree-CL (0.22 la,m), Millipore; Centrifuge type or Eppendorf 5804R were used at a temperature of 22° C. and centrifugation program of 2 min 3000 rpm.
HPLC was used to analyse the purity of S-1. HP 1090M HPLC machine was used with the following conditions: • Column: Symmetry Shield RP18, 3.9×150 mm, 5 μm • Column temperature: 35° C. • Injection volume: 10 μL • Solvent: acetonitrile+water 1:1 v/v • Mobile phase A: 0.1% TFA-water • Mobile phase B: 0.1% TFA-acetonitrile • Flow rate: 1 mL/min. • Detection: UV at 271 nm • Run time: 21 min. • Retention time (S-1): 10.7 min.
Suspensions of the solid forms (25 or 50 mg in 3.5 or 7.0 ml bidistilled water) were shaken (800 rpm) and filtered after 0.5 h, 1.5 h, 4 h and 20 h. After filtration the solid residue was checked by Raman spectroscopy and the concentration in the clear solution was determined by HPLC.

[3] = Dynamic vapor sorption (DVS); conditions: 25° C.
Experimental: Dynamic vapor sorption quantification relates the mass of water absorbed and subsequently desorbed during the crystallization process. In order to define whether batch P1, P2 and P4 are hydrated polymorphs, DVS measurements were conducted (FIG. 9). A sample (13 to 14 mg) was placed on a Pt pan, and the sample was allowed to equilibrate at 25° C./50% r.h. before starting a pre-defined humidity program (1.0 hours 50%, from 50% r.h. to 95% r.h.: 5% r.h./hour, 10 hours at 95% r.h., from 95% r.h. to 0% r.h.: 5% r.h./hour, 10 hours at 0% r.h., from 0% r.h. to 50% r.h.: 5% r.h./hour, 1 hours at 50% r.h.

[4] = Suspension equilibration experiments; conditions: stirred 20 h/23° C.
Experimental: Suspension equilibration experiments were carried out with 81-128 mg of the compound. The suspensions were stirred with a magnetic stirrer. The samples obtained after filtration were air dried at ambient temperature for a short time only to prevent possible desolvation of labile hydrates or solvates.

[5] = Relative stability of polymorphic forms under dry conditions (heating, micronization)
Experimental: (§1) Thermal analysis was carried out with a Perkin Elmer DSC7 with the following experimental conditions: 3 to 6 mg sample mass, closed gold sample pan, temperature range −50° C. to 120° C., heating rate 20 K/min. The samples were weighed in air or dry N2 atmosphere. Additional thermal analysis was conducted using a TA Instruments Q1000 DSC using hermetic aluminum pans under various conditions.
Thus forms A and B″ can be considered to be practically stable at ambient temperature. […] Micronization of the polymorph A particles under dry conditions also produced ˜25% conversion to B″.

[6] = Relative stability of polymorphic forms under humid conditions (storage, DSC)
Experimental: as §1
Polymorph A stays stable in its A form for at least 7 days under storage conditions of ambient temperature/75% RH (Relative Humidity), ambient temperature/100% RH, 30° C./75% RH and 50° C./0% RH.
In fact, polymorph D in the presence of moisture acts as the seed for the crystallization process and drives the transformation of polymorphs A and B′ into D, similar to its role in seeding the A to D crystallization in dry conditions. […] The amount of polymorph D initially added to the sample is very small that it isn't detectable by the DSC with heating rate of 10° C./min. […] The transformation process is speeded up in FIG. 17G (b) by storing the sample in water at 50° C. […] Further work has shown that the A and B′ convert to D in the presence of moisture at lower temperatures also albeit at slower rates.

[7] = Water vapor sorption (humidity chamber) and aqueous suspension, form produced; conditions: for form B′ formed: powder stored in humidified chamber 96% r.h./23° C. (room temperature), 11 weeks, Raman and DSC
Experimental: The compound was stored in a glass tube under 96% r.h. (relative humidity) in a humidity chamber at room temperature. After different time of storage Raman measurements were conducted using hermetically closed glass tubes.

Work on `C[C@](O)(COc1ccc(C#N)cc1)C(=O)Nc1ccc(C#N)c(C(F)(F)F)c1` [Form A, (S)-N-(4-cyano-3-(trifluoromethyl)phenyl)-3-(4-cyanophenoxy)-2-hydroxy-2-methylpropanamide] yielded a solubility ([1]; 1,4-dioxane, organic solvent or mixture, thermodynamic from solid, 1,4-dioxane, 23° C.) greater than 200 mg/mL, a solubility ([1]; TBME, organic solvent or mixture, thermodynamic from solid, TBME, 23° C.) greater than 200 mg/mL and a solubility ([1]; THF, organic solvent or mixture, thermodynamic from solid, THF, 23° C.) greater than 200 mg/mL. The solubility ([1]; THF/n-heptane 1:1 v/v, organic solvent or mixture, thermodynamic from solid, THF/n-heptane 1:1 v/v, 23° C.) was greater than 200 mg/mL, the solubility ([1]; THF/n-heptane 1:3 v/v, organic solvent or mixture, thermodynamic from solid, THF/n-heptane 1:3 v/v, 23° C.) was 65 mg/mL (≈ 167 mM) and the solubility ([1]; acetic acid, organic solvent or mixture, thermodynamic from solid, acetic acid, 23° C.) was greater than 200 mg/mL. It also gave a solubility ([1]; acetone, organic solvent or mixture, thermodynamic from solid, acetone, 23° C.) greater than 200 mg/mL, a solubility ([1]; acetone/n-heptane 1:1 v/v, organic solvent or mixture, thermodynamic from solid, acetone/n-heptane 1:1 v/v, 23° C.) greater than 200 mg/mL and a solubility ([1]; acetone/n-heptane 1:3 v/v, organic solvent or mixture, thermodynamic from solid, acetone/n-heptane 1:3 v/v, 23° C.) of 90 mg/mL (≈ 231 mM). For the same compound, the solubility ([1]; acetonitrile, organic solvent or mixture, thermodynamic from solid, acetonitrile, 23° C.) was greater than 200 mg/mL, the solubility ([1]; acetonitrile/toluene 1:1 v/v, organic solvent or mixture, thermodynamic from solid, acetonitrile/toluene 1:1 v/v, 23° C.) was greater than 200 mg/mL and the solubility ([1]; acetonitrile/toluene 1:3 v/v, organic solvent or mixture, thermodynamic from solid, acetonitrile/toluene 1:3 v/v, 23° C.) was 170 mg/mL (≈ 437 mM). For the same compound, the solubility ([1]; dichloromethane, organic solvent or mixture, thermodynamic from solid, dichloromethane, 23° C.) was greater than 200 mg/mL, the solubility ([1]; ethanol, organic solvent or mixture, thermodynamic from solid, ethanol, 23° C.) was greater than 200 mg/mL and the solubility ([1]; ethanol/n-heptane 1:1 v/v, organic solvent or mixture, thermodynamic from solid, ethanol/n-heptane 1:1 v/v, 23° C.) was 180 mg/mL (≈ 462 mM). For the same compound, the solubility ([1]; ethanol/n-heptane 1:3 v/v, organic solvent or mixture, thermodynamic from solid, ethanol/n-heptane 1:3 v/v, 23° C.) was 50 mg/mL (≈ 128 mM), the solubility ([1]; ethanol/water 1:1 v/v, aqueous with cosolvent or surfactant or cyclodextrin, thermodynamic from solid, ethanol/water 1:1 v/v, 23° C.) was 50 mg/mL (≈ 128 mM) and the solubility ([1]; ethanol/water 1:3 v/v, aqueous with cosolvent or surfactant or cyclodextrin, thermodynamic from solid, ethanol/water 1:3 v/v, 23° C.) was less than 5 mg/mL. For the same compound, the solubility ([1]; ethanol/water 3:1 v/v, aqueous with cosolvent or surfactant or cyclodextrin, thermodynamic from solid, ethanol/water 3:1 v/v, 23° C.) was greater than 200 mg/mL, the solubility ([1]; ethyl acetate, organic solvent or mixture, thermodynamic from solid, ethyl acetate, 23° C.) was greater than 200 mg/mL and the solubility ([1]; ethyl acetate/n-heptane 1:1 v/v, organic solvent or mixture, thermodynamic from solid, ethyl acetate/n-heptane 1:1 v/v, 23° C.) was 65 mg/mL (≈ 167 mM). The solubility ([1]; ethyl acetate/n-heptane 1:2 v/v, organic solvent or mixture, thermodynamic from solid, ethyl acetate/n-heptane 1:2 v/v, 23° C. (B′: solid form transformation into solid form A)) was 9 mg/mL (≈ 23.1 mM), the solubility ([1]; ethyl acetate/n-heptane 1:3 v/v, organic solvent or mixture, thermodynamic from solid, ethyl acetate/n-heptane 1:3 v/v, 23° C. (turbid solution)) was less than 5 mg/mL and the solubility ([1]; ethyl acetate/n-pentane 1:2 v/v, organic solvent or mixture, thermodynamic from solid, ethyl acetate/n-pentane 1:2 v/v, 23° C.) was 13 mg/mL (≈ 33.4 mM). The solubility ([1]; ethyl formate/n-pentane 1:2 v/v, organic solvent or mixture, thermodynamic from solid, ethyl formate/n-pentane 1:2 v/v, 23° C.) was 12 mg/mL (≈ 30.8 mM), the solubility ([1]; methyl acetate/n-pentane 1:2 v/v, organic solvent or mixture, thermodynamic from solid, methyl acetate/n-pentane 1:2 v/v, 23° C.) was 8 mg/mL (≈ 20.5 mM) and the solubility ([1]; toluene, organic solvent or mixture, thermodynamic from solid, toluene, 23° C. (turbid solution)) was less than 6 mg/mL. The solubility in water ([2]; 22° C., stated as embodiment) was 0.023 to 0.027 mg/mL, the Solid residue ([2]; water, 22° C., 0.5 h) was “A + B′ (approx. 95% + 5%) ^c)” and the Solid residue ([2]; water, 22° C., 1.5 h) was “A + B′ (approx. 90% + 10%) ^c)”. The Solid residue ([2]; water, 22° C., 4.0 h) was “A + B′ (approx. 85% + 15%) ^c)”, the Solid residue ([2]; water, 22° C., 20 h) was “A + B′ (approx. 75% + 25%) ^c)” and the “pH of the solution” value ([2]; water, 22° C., 20 h suspension equilibration) was “^d) pH of the solution: 8.7”. It also gave a solubility ([2]; water, 22° C., suspension equilibration time 0.5 h, mean of two measurements (±standard deviation)) of 21.0 ± 3.9 mg/1000 ml, a solubility ([2]; water, 22° C., suspension equilibration time 1.5 h, mean of two measurements (±standard deviation)) of 24.0 ± 1.4 mg/1000 ml and a solubility ([2]; water, 22° C., suspension equilibration time 1.5 h, mean of two measurements (±standard deviation), listed as A) of 24.0±1.4 mg/1000 ml. For the same compound, the solubility ([2]; water, 22° C., suspension equilibration time 4.0 h, mean of two measurements (±standard deviation)) was 27.6 ± 1.5 mg/1000 ml, the solubility ([2]; water, 22° C., suspension equilibration time 20 h, mean of two measurements (±standard deviation)) was 24.5 ± 1.7 ^d) mg/1000 ml and the solubility ([2]; water, 22 °C, water, thermodynamic from solid, stated as embodiment, read-out: solubility in water) was 0.02 to 0.03 mg/mL (≈ 0.0514 to 0.0771 mM). For the same compound, the “maximum water content at 93% r.h.” value [3] was 1.5%, the Form produced ([4]; ethyl formate + n-pentane 1:2 v/v 112/2.0 mg/ml) was “no transformation of solid form A” and the Form produced ([4]; methyl acetate + n-pentane 1:2 v/v 126/2.0 mg/ml) was “no transformation of solid form A”. The “solid form change on heating” value ([5]; heating to 110° C. in the presence of D) was “rearrange into D”, the “conversion to B″” value ([5]; micronization of the particles under dry conditions) was roughly 25% and the “solid form change, seeded with a small amount of D” value (from here on “solid form change, seeded”) ([6]; 50° C./75% RH, after 24 hours) was “most of the polymorph form A has been converted to B′ but a small amount of sample has also been converted to D”. For the same compound, the “time stable in its A form on storage” value ([6]; each of ambient temperature/75% RH, ambient temperature/100% RH, 30° C./75% RH and 50° C./0% RH) was “at least 7 days”, the “stable through (storage time)” value ([6]; stored at 25° C./60% RH) was no less than 36 months and the “stable through (storage time)” value ([6]; stored at 30° C./65% RH) was no less than 9 months. For the same compound, the “solid form change on storage” value ([6]; stored at 40° C./75% RH) was “converts to B′ when stored at 40° C./75% RH within one month”, the “solid form change on storage” value ([6]; stored at 40° C./75% RH, listed as polymorph A) was “converted to B′ within one month” and the “solid form change on storage” value ([6]; stored at 50° C./75% RH) was “converts to B′”. For the same compound, the “solid form change, seeded” value ([6]; stored in water at 50° C., after 6 hours) was “converted to both B′ and D”, the “solid form change, seeded” value ([6]; stored in water at 50° C., by 24 hours) was “predominantly in form D” and the “form B′ formed” value ([7]; listed as A) was roughly 20% form B′. The “form B′ formed” value ([7]; listed as form A) was “approx. 20%”, the Form produced ([7]; powder stored in humidified chamber 96% r.h./23° C., 4 weeks) was “A + small” and the Form produced ([7]; powder stored in humidified chamber 96% r.h./23° C., 9 weeks) was “A + form B′”. For the same compound, the Form produced ([7]; suspension in water 111/5.0 mg/ml, sonication 5 min., stirred 19 h/37° C., filtered & air dried) was “B′”, the Form produced ([7]; water + 5% acetic acid v/v 105/2.0 mg/ml, stirred 17 h/40° C., cooled to R.T. and removed solution) was “B′” and the Form produced ([7]; water + 5% ethanol v/v 123/2.1 mg/ml, stirred 3 h/83° C., cooled to 47° C. within 1.5 h, filtered & air dried) was “B′”.

— patent publication US20240326697A1, “SOLID FORMS OF SELECTIVE ANDROGEN RECEPTOR MODULATORS” (priority 2007, published 2024)
